Assay results: EP4389751A1, “HETEROCYCLIC COMPOUNDS AND USES THEREOF” (Kumquat Biosciences Inc., priority 2021, dated 2024)

Key:
K-Ras G12S = molecular target: T1, K-Ras G12S (Homo sapiens, UniProt P01116, G12S); test: HTRF assay of the K-Ras / SOS1 interaction; assay type: biochemical; details: IC50 (against K-Ras G12D) to IC50 (against K-Ras G12S)
T1 construct: made in house; host or cells: E. coli (e.g., BL21 (DE3))
Summary of the method: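 Compounds (duplicates, 10 µM to 0.01 µM) were incubated ≥~10 min with Eu-labelled GST-K-Ras G12S and XL665-labelled His-hSOS1 in HEPES pH 7.4 buffer containing NaCl, DTT, BSA and Igepal. Disruption measured as HTRF emission ratio 665/620 nm, fitted to IC50.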

[1] = molecular target: T2, KRAS protein (His-tagged GDP-loaded G12S 1-169) (Homo sapiens, UniProt P01116, G12S); test: Covalent modification of KRAS protein, intact-protein LC-MS; assay type: binding; details: 24hrs at room temperature, KRAS protein ~2 µM
T2 construct: His-tagged GDP-loaded G12S 1-169
Summary of the method: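 Percent covalent modification derives from deconvoluted intact-mass intensities of compound-adducted versus unmodified KRAS, measured by LC-ESI-MS. Before analysis, ~2 µM GDP-loaded His-KRAS 1-169 was exposed to compound for 24 h at room temperature and acidified with formic acid.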

T1 sequence (P01116 1-188 isoform P01116-2 G12S): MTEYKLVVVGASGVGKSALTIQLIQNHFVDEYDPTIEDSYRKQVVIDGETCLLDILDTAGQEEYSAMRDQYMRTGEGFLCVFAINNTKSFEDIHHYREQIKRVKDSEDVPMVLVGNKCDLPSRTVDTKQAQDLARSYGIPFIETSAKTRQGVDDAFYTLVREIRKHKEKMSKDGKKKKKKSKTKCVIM
T2 sequence (P01116 1-169 isoform P01116-2 G12S): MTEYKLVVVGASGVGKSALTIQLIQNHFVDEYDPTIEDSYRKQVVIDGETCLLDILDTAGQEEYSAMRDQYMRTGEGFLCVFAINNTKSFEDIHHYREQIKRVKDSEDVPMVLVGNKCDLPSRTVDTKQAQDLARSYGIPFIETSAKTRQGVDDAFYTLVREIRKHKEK

N#Cc1c(N)sc2c(F)ccc(-c3c(Cl)cc4c(N[C@H]5C[C@H]6CC[C@@H](C5)N6C(=O)n5cncn5)nc(OC[C@@]56CCCN5C[C@H](F)C6)nc4c3F)c12 [Compound A257, 4-(4-(((1R,3r,5S)-8-(1H-1,2,4-triazole-1-carbonyl)-8-azabicyclo[3.2.1]octan-3-yl)amino)-6-chloro-8-fluoro-2-(((2R,7aS)-2-fluorotetrahydro-1H-pyrrolizin-7 a(5H)-yl)methoxy)quinazolin-7-yl)-2-amino-7-fluorobenzo[b]thiophene-3-carbonitrile]
Ratio of IC50 KRAS G12D vs. IC50 KRAS G12S (K-Ras G12S): A (A: indicates that the ratio of IC50 against KrasG12D vs. IC50 against KrasG12S is 1-fold or greater) | % G12S Modification at 24 hr. [1]: ++ (++ indicates between about 1%- 20% labelling)
